This assay relates to Plasmodium berghei. Briefly: Luciferase/luciferin-expressing antifolate-resistant parasites were used to infect a culture of HepG2 cells that were pre-incubated with compounds. Infected hepatocytes emit light due to the luciferase reaction. Assay results are presented as the percent inhibition of light emission compared to control. […]. In kind it is functional. Particulars: sporozoite; for IC90: read-out: LUCIFERASE INFECTION ASSAY - IC90.

[1] abbreviates: read-out: LUCIFERASE INFECTION ASSAY - IC50.

Some results are limits rather than exact numbers.

`Cc1cc(C(=O)CSc2nc3ccccc3[nH]2)c(C)n1-c1ccc(F)cc1`: the concentration for an effect of 90% (IC90) was 0.513 µM. The IC50 (HEPG2TOX_HILL_SLOPE 0.596, HEPG2TOX_R_SQUARED 0.924, PBLUC_HILL_SLOPE 3.63, PBLUC_R_SQUARED 0.908, read-out: LUCIFERASE INFECTION ASSAY - IC50) amounted to 0.28 µM.

Consider `O=C1Nc2ccccc2/C1=C/c1cccn1-c1ccc(C(F)(F)F)cc1`, for which the IC90 is greater than 9.31 µM. For the same compound, the IC50 (PBLUC_HILL_SLOPE 2.37, PBLUC_R_SQUARED 0.071, read-out: LUCIFERASE INFECTION ASSAY - IC50) was 5.82 µM.

For `Cn1ccc2cc(-c3cn4c(-c5ccc(CO)cc5)cnc4cn3)ccc21`, the IC90 amounted to 0.829 µM. Moreover, the half-maximal inhibitory concentration (IC50) (FFLUC_HILL_SLOPE 16.7, FFLUC_R_SQUARED 0.117, HEPG2TOX_HILL_SLOPE 0.88, HEPG2TOX_R_SQUARED 0.915, PBLUC_HILL_SLOPE 3.4, PBLUC_R_SQUARED 0.717, read-out: LUCIFERASE INFECTION ASSAY - IC50) was 0.435 µM.

With `CC(C)(C)C(=O)CC(=O)Nc1ccc(C(F)(F)F)cc1`, the IC90 was greater than 11.5 µM. Also, the IC50 (FFLUC_HILL_SLOPE 0.143, FFLUC_R_SQUARED 0.0864, PBLUC_HILL_SLOPE 0.817, PBLUC_R_SQUARED 0.0775, read-out: LUCIFERASE INFECTION ASSAY - IC50) is greater than 11.5 µM.

In the case of `CN1C(=O)N(Cc2ccc3ccccc3c2)C(=O)C12CCN(Cc1ccc(C#CC(C)(C)O)cc1)CC2`, the IC90 stood at 2.84 µM. Besides, for the setting “HEPG2TOX_HILL_SLOPE 3.16, HEPG2TOX_R_SQUARED 0.979, PBLUC_HILL_SLOPE 9.91, PBLUC_R_SQUARED 0.437, read-out: LUCIFERASE INFECTION ASSAY - IC50”, the IC50 came out at 2.27 µM.

Take `CC(=O)Nc1ccc(-c2cnc3ccc(-c4cccs4)nn23)cc1`: the IC90 is 2.75 µM. The IC50 (HEPG2TOX_HILL_SLOPE 1.84, HEPG2TOX_R_SQUARED 0.871, PBLUC_HILL_SLOPE 5.5, PBLUC_R_SQUARED 0.751, read-out: LUCIFERASE INFECTION ASSAY - IC50) was 1.84 µM.

Turning to `c1ccc(Oc2ccccc2-c2cnc3c(NCCc4cccnc4)nccn23)cc1`, the IC90 was determined as 7.62 µM. In addition, for the setting “HEPG2TOX_HILL_SLOPE 47.6, HEPG2TOX_R_SQUARED 0.873, PBLUC_HILL_SLOPE 7.25, PBLUC_R_SQUARED 0.536, read-out: LUCIFERASE INFECTION ASSAY - IC50”, the IC50 amounted to 5.63 µM.

Regarding `CCOC(=O)c1c(-c2csc(Nc3ccccn3)n2)c(C)n(CC)c1C`, the concentration for an effect of 90% (IC90) is greater than 10 µM. For the same compound, the IC50 (PBLUC_HILL_SLOPE 7.74, 2.96, PBLUC_R_SQUARED 0.584, 0.552, read-out: LUCIFERASE INFECTION ASSAY - IC50) came out at 9.4 µM.

For the compound `Cc1ccc(NS(=O)(=O)c2ccc(C(=O)NNC(=O)COc3ccc(C#N)cc3)cc2)cc1`, the IC90 was greater than 10 µM. The IC50 under setting [1] is greater than 10 µM.

For `CC(=O)Nc1cccc(-c2cn3c(-c4ccc(Cl)cc4)cnc3cn2)c1`, the IC90 came to 3.69 µM. For the same compound, for the setting “PBLUC_HILL_SLOPE 3.14, PBLUC_R_SQUARED 0.81, read-out: LUCIFERASE INFECTION ASSAY - IC50”, the IC50 worked out at 1.83 µM.

As to `CC1Cc2cc(C(=O)CSc3nnc(Cc4cccs4)n3C)ccc2N1S(C)(=O)=O` (centres undefined), the IC90 is greater than 10 µM. Besides, the IC50 (HEPG2TOX_HILL_SLOPE 2.13, 1.88, HEPG2TOX_R_SQUARED 0.890, 0.990, PBLUC_HILL_SLOPE 2.16, PBLUC_R_SQUARED 0.278, read-out: LUCIFERASE INFECTION ASSAY - IC50) was found to be 3.7 µM.

With `Cc1cc(C)c(CSCCNC(=O)Nc2ccccc2)c(C)c1`, the IC90 was greater than 10 µM. Besides, the IC50 (PBLUC_HILL_SLOPE 3.02, PBLUC_R_SQUARED 0.314, read-out: LUCIFERASE INFECTION ASSAY - IC50) was 4.91 µM.

With `CCCCCNC(=O)COC(=O)c1ccccc1-n1ncc(Cl)c(Cl)c1=O`, the IC90 came out at 7.79 µM. The IC50 (HEPG2TOX_HILL_SLOPE 4.14, HEPG2TOX_R_SQUARED 0.93, PBLUC_HILL_SLOPE 2.41, PBLUC_R_SQUARED 0.609, read-out: LUCIFERASE INFECTION ASSAY - IC50) came to 3.13 µM.

`O=C(c1ccccc1)c1ccc(OCc2coc(-c3ccccc3)n2)cc1`: the IC90 is greater than 10 µM. The IC50 under setting [1] was greater than 10 µM.

With `CS(=O)(=O)c1ccc(-c2cnc3c(NC=O)cc(-c4ccsc4)cn23)cc1`, the IC90 came out at 4.59 µM. For the same compound, the IC50 (PBLUC_HILL_SLOPE 3.07, PBLUC_R_SQUARED 0.32, read-out: LUCIFERASE INFECTION ASSAY - IC50) turned out to be 2.24 µM.

In the case of `N#C/C=C/C=C/c1nnn(-c2ccc(Cl)cc2)n1`, the IC90 worked out at 12.6 µM. Further, the IC50 (PBLUC_HILL_SLOPE 14.5, PBLUC_R_SQUARED 0.28, read-out: LUCIFERASE INFECTION ASSAY - IC50) was determined as 10.9 µM.

Take `N#Cc1cc(-c2ccccc2)nnc1NCc1ccc(Cl)cc1`: the IC90 was greater than 10.3 µM. Also, the IC50 (HEPG2TOX_HILL_SLOPE 2, HEPG2TOX_R_SQUARED 0.904, PBLUC_HILL_SLOPE 2.36, PBLUC_R_SQUARED 0.485, read-out: LUCIFERASE INFECTION ASSAY - IC50) was 6.28 µM.

Regarding `CS(=O)(=O)Nc1cccc(-c2cnc(N)c(-c3cccc(C(F)(F)F)c3)c2)c1`, the IC90 was found to be 0.0724 µM. In addition, the 50% inhibitory concentration (IC50) (HEPG2TOX_HILL_SLOPE 0.275, HEPG2TOX_R_SQUARED 0.333, PBLUC_HILL_SLOPE 1.7, PBLUC_R_SQUARED 0.794, read-out: LUCIFERASE INFECTION ASSAY - IC50) was 0.0199 µM.

As for `CC(=O)Nc1ccc(Sc2ccc(S(C)(=O)=O)cc2[N+](=O)[O-])cc1`, the IC90 was greater than 10 µM. Also, the IC50 under setting [1] is greater than 10 µM.

Turning to `CC(C)(CNC(=O)Nc1ccccc1)SCc1ccc(Cl)cc1`, the IC90 was greater than 9.46 µM. Also, under “PBLUC_HILL_SLOPE 4.79, PBLUC_R_SQUARED 0.408, read-out: LUCIFERASE INFECTION ASSAY - IC50”, the 50% inhibitory concentration (IC50) amounted to 6.73 µM.

As to `c1ccc(-c2csc3ncnc(NC4CCCCC4)c23)cc1`, the IC90 is 4.21 µM. The IC50 (HEPG2TOX_HILL_SLOPE 16.2, HEPG2TOX_R_SQUARED 0.468, PBLUC_HILL_SLOPE 9.94, 2.76, PBLUC_R_SQUARED 0.433, 0.667, read-out: LUCIFERASE INFECTION ASSAY - IC50) amounted to 4.13 µM.

Take `Cc1nn(-c2ccccn2)c2nc(-c3ccc4c(c3)OCO4)ccc12`: the IC90 is greater than 10 µM. Also, the IC50 (HEPG2TOX_HILL_SLOPE 2.11, HEPG2TOX_R_SQUARED 0.932, read-out: LUCIFERASE INFECTION ASSAY - IC50) was greater than 10 µM.

In the case of `Cc1cc(C(=O)COc2cccnc2[N+](=O)[O-])c(C)n1-c1ccc2c(c1)OCO2`, the IC90 is greater than 10 µM. Further, the IC50 (PBLUC_HILL_SLOPE 1.7, PBLUC_R_SQUARED 0.197, read-out: LUCIFERASE INFECTION ASSAY - IC50) stood at 8.75 µM.

For the compound `CCN(Cc1cccc(F)c1)C(=O)Nc1ccccc1-n1nc(C)cc1C`, the IC90 was greater than 10 µM. In addition, the IC50 under setting [1] is greater than 10 µM.

With `CN(C)n1cccc1/C=C(\C#N)S(C)(=O)=O`, the IC90 is greater than 13.8 µM. Also, the IC50 under setting [1] was greater than 13.8 µM.

For `CCOc1cc(N2CCOCC2)c(OCC)cc1NC(=O)c1cc(Cl)c(OC)c(OC)c1`, the IC90 was greater than 10 µM. Moreover, the IC50 under setting [1] is greater than 10 µM.

For `Nc1nc(CSc2nccc(C(F)(F)F)n2)nc(Nc2ccc(F)cc2)n1`, the IC90 is greater than 10 µM. Also, the IC50 under setting [1] is greater than 10 µM.

As to `CCCn1c(N)c(N2CCCCC2)c(=O)n(Cc2nc(N)nc(Nc3ccc(C)cc3)n2)c1=O`, the IC90 turned out to be 4.61 µM. Further, under setting [1], the IC50 was determined as 3.72 µM.

Consider `Clc1ccc(CSc2nncn2-c2ccc3c(c2)OCCO3)cc1`, for which the IC90 is 3.5 µM. Moreover, where the note is “HEPG2TOX_HILL_SLOPE 1.37, HEPG2TOX_R_SQUARED 0.824, PBLUC_HILL_SLOPE 1.99, PBLUC_R_SQUARED 0.536, read-out: LUCIFERASE INFECTION ASSAY - IC50”, the IC50 was found to be 1.16 µM.

Consider `Cc1ccc(Nc2nccc(C(F)(F)F)n2)cc1S(=O)(=O)N(C)C`, for which the concentration for an effect of 90% (IC90) was greater than 10 µM. Also, under “HEPG2TOX_HILL_SLOPE 1.28, HEPG2TOX_R_SQUARED 0.583, PBLUC_HILL_SLOPE 1.84, 1.48, PBLUC_R_SQUARED 0.674, 0.430, read-out: LUCIFERASE INFECTION ASSAY - IC50”, the IC50 was found to be 4.96 µM.

For the compound `COc1ccc(-n2nnnc2SCC(=O)Nc2cc(-c3ccc(C)cc3)nn2-c2ccccc2)cc1`, the IC90 was greater than 10 µM. The IC50 under setting [1] is greater than 10 µM.

Regarding `COc1ccc(OC)c(-c2csc(NC(=O)c3c(C)nc(C(C)C)nc3SC)n2)c1`, the IC90 was greater than 10 µM. In addition, the IC50 (FFLUC_HILL_SLOPE 4.18, FFLUC_R_SQUARED 0.209, HEPG2TOX_HILL_SLOPE 6.05, HEPG2TOX_R_SQUARED 0.136, PBLUC_HILL_SLOPE 1.9, PBLUC_R_SQUARED 0.115, read-out: LUCIFERASE INFECTION ASSAY - IC50) was greater than 10 µM.

For the compound `Cc1cc(NC(=O)C2CC2)sc1C(=O)N1CCNC(=O)C1`, the IC90 is greater than 10 µM. Further, the IC50 under setting [1] is greater than 10 µM.

`COC(=O)c1ccccc1N(C)S(=O)(=O)c1ccc(Cl)cc1F`: the IC90 is greater than 10 µM. For the same compound, the IC50 under setting [1] is greater than 10 µM.

Turning to `OCc1ccccc1-c1cn2c(-c3ccc4ncccc4c3)cnc2cn1`, the IC90 was 0.468 µM. For the same compound, the IC50 (HEPG2TOX_HILL_SLOPE 0.72, HEPG2TOX_R_SQUARED 0.902, PBLUC_HILL_SLOPE 1.49, PBLUC_R_SQUARED 0.863, read-out: LUCIFERASE INFECTION ASSAY - IC50) was determined as 0.107 µM.

Consider `Cc1cc(C(=O)CSc2nc(N)nc(N)n2)c(C)n1CCC1=CCCCC1`, for which the IC90 is greater than 10 µM. Under setting [1], the IC50 is greater than 10 µM.

With `O=C1/C(=C\c2ccccn2)N(CCc2ccccc2)S(=O)(=O)c2ccccc21`, the IC90 is greater than 8.45 µM. Under setting [1], the IC50 is greater than 8.45 µM.

Values taken from ChEMBL document CHEMBL4483862, “Open-source discovery of chemical leads for next-generation chemoprotective antimalarials” (2018).
